Experimental data from PMC10817917, “Alkyl deoxyglycoside-polymyxin combinations against critical priority carbapenem-resistant gram-negative bacteria” (Scientific Reports, 2024).
Where two headings read alike, the source gives them in different places.

Tests used:
E. coli ATCC 25922 = assay: Broth microdilution MIC/MBC, glycosides with or without polymyxins; type: cell-based, Escherichia coli; details: for MIC: Escherichia coli, ATCC25922
E. coli NCTC 13846 = assay: as above; type: cell-based, Escherichia coli; details: strain B
K. pneumoniae CQ1942 = assay: Broth microdilution MIC, glycosides with or without polymyxins; type: cell-based, Klebsiella pneumoniae; details: for MIC: Klebsiella pneumoniae, CQ1942
A. baumannii CQ4322 = assay: Broth microdilution MIC/MBC, glycosides with or without polymyxins; type: cell-based, Acinetobacter baumannii; details: for MIC: Acinetobacter baumannii, CQ4322
Caco-2 cells = assay: Resazurin cell viability assay (cytotoxicity); type: cell-based, human; details: Homo sapiens, Caco-2, 72 h, read-out: IC50
Experimental: (§1) Cytotoxicity of each compound alone or in combination with different polymyxin concentrations was evaluated through the resazurin cell viability assay[49] in human embryonic HEK-293T cells, as well as in human colon adenocarcinoma Caco-2 cells, after a 72-h long incubation period.
(§2) HEK-293T and Caco-2 cells were grown in RPMI 1640 medium (VWR) supplemented with 10% FBS (Biowest), 1% PenStrep (Sigma Aldrich), and 1% glutamine (Biowest) in a humidified incubator at 37 °C with a 5% CO2 atmosphere. Twice a week, the medium was aspirated, the cells were washed with DPBS (VWR), trypsinized with trypsin–EDTA solution (Biowest), and resuspended in fresh culture medium. The dose-dependent effects of each glycoside or glycoside-polymyxin combination were evaluated by the resazurin cell viability assay. Polymyxins (colistin sulfate and PMB sulfate for microbiological assays, European Pharmacopoeia Reference Standards, Sigma-Aldrich) were firstly dissolved in sterilized Mili-Q water to a stock concentration of 1 mg/mL, while glycosides were dissolved in DMSO to a stock concentration of 30 mM. 1.5 × 10^4 cells/well in 96.5 µL of medium were seeded onto 96-well plates and incubated at 37 °C for 24 h. For each compound, ten stock dilutions (with concentrations from 750 to 75 µM) were prepared in fresh medium immediately prior to incubation. 16 µL of each dilution were added to each well so that the final glycoside concentrations ranged from 100 to 10 µM in each row in a final assay volume of 120 µL. In addition, the previously prepared polymyxin stock solutions were diluted in fresh medium, affording new stocks of 8, 4, and 2 µg/mL. The same volume (7.5 µL/well) of PMB or colistin was then added to each row to achieve a final polymyxin concentration of 0.5, 0.25, and 0.125 µg/mL, respectively, regardless of the glycoside concentration. In assays without polymyxin, the same volume (7.5 µL/well) of medium was added. In all assays, the maximum DMSO concentration was 0.33%. After a 72-h incubation at 37 °C, 12 µL of a 0.15 mg/mL resazurin (Sigma-Aldrich) in sterilized Mili-Q water were added to each well, and the plates were left incubating for another 4 h at 37 °C. Resorufin was measured at 570/600 nm, and the percentage of resazurin reduction, corresponding to the cell viability percentage, was calculated according to Eq. (1)[60]. IC50 values were obtained by best fitting the dose-dependent inhibition curves using the Prism 9® software. The results were expressed as the mean ± SD of three independent replicates, with only data from analysis with R^2 > 0.90 being considered.1 %Cellviability=Abssample-Absmediumcontrol/Abscellcontrol-Absmediumcontrol×100

HEK-293T cells = assay: Resazurin cell viability assay (cytotoxicity); type: cell-based, human; details: Homo sapiens, HEK-293T, 72 h, read-out: IC50
Experimental: as §1, §2

[1] = alone, read-out: MICA (MIC of each compound individually)
[2] = combination with the lowest FICI
[3] = compound + colistin, lowest FICI
[4] = tested alone (no polymyxin adjuvant)

MIC of colistin in combination with the compound (E. coli ATCC 25922; Cpd conc. 0.4 μg/mL, strain A): 0.5 µg/mL
MIC of colistin in combination with the compound (E. coli ATCC 25922; Cpd conc. 0.8 μg/mL, strain A): 0.5 µg/mL
MIC of colistin in combination with the compound (E. coli ATCC 25922; Cpd conc. 3.125 μg/mL, strain A): 0.25 µg/mL
MIC of colistin in combination with the compound (E. coli ATCC 25922; Cpd conc. 6.25 μg/mL, strain A): 0.25 µg/mL
MIC of colistin in combination with the compound (E. coli ATCC 25922; Cpd conc. 12.5 μg/mL, strain A): 0.25 µg/mL
MIC of colistin in combination with the compound (E. coli ATCC 25922; Cpd conc. […], strain A): 0.5 µg/mL
MIC (E. coli ATCC 25922; agent alone, no adjuvant (polymyxin conc. 0), strain A, read-out: MIC): > 100 µg/mL
MIC (E. coli ATCC 25922; [1]): > 100 µg/mL
MIC of compound in combination with PMB (E. coli ATCC 25922; PMB 0.25 μg/mL, strain A): 3.1 µg/mL
MIC of compound in combination with PMB (E. coli ATCC 25922; PMB 0.5 μg/mL, strain A): ≤ 0.1 µg/mL
MIC of compound in combination with colistin (E. coli ATCC 25922; colistin 0.06 μg/mL, strain A): > 100 µg/mL
MIC of compound in combination with colistin (E. coli ATCC 25922; colistin 0.125 μg/mL, strain A): > 100 µg/mL
MIC of compound in combination with colistin (E. coli ATCC 25922; colistin 0.25 μg/mL, strain A): 3.1 µg/mL
MIC of compound in combination with colistin (E. coli ATCC 25922; colistin 0.5 μg/mL, strain A): ≤ 0.1 µg/mL
MICA(A + B) (MIC of compound in combination with colistin) (E. coli ATCC 25922; [2]): 3.125 µg/mL
MICB(A + B) (MIC of colistin in combination with compound) (E. coli ATCC 25922; [2]): 0.25 µg/mL
MIC of colistin in combination with the compound (E. coli NCTC 13846; Cpd conc. 0.4 μg/mL): > 0.5 µg/mL
MIC of colistin in combination with the compound (E. coli NCTC 13846; Cpd conc. 0.8 μg/mL): > 0.5 µg/mL
MIC of colistin in combination with the compound (E. coli NCTC 13846; Cpd conc. 3.125 μg/mL): > 0.5 µg/mL
MIC of colistin in combination with the compound (E. coli NCTC 13846; Cpd conc. 6.25 μg/mL): > 0.5 µg/mL
MIC of colistin in combination with the compound (E. coli NCTC 13846; Cpd conc. 12.5 μg/mL): > 0.5 µg/mL
MIC of colistin in combination with the compound (E. coli NCTC 13846; Cpd conc. […]): > 0.5 µg/mL
MIC (E. coli NCTC 13846; Escherichia coli, NCTC13846, agent alone, no adjuvant (polymyxin conc. 0), read-out: MIC): > 100 µg/mL
MIC of compound in combination with PMB (E. coli NCTC 13846; PMB 0.25 μg/mL): > 100 µg/mL
MIC of compound in combination with PMB (E. coli NCTC 13846; PMB 0.5 μg/mL): > 100 µg/mL
MIC of compound in combination with colistin (E. coli NCTC 13846; colistin 0.06 μg/mL): > 100 µg/mL
MIC of compound in combination with colistin (E. coli NCTC 13846; colistin 0.125 μg/mL): > 100 µg/mL
MIC of compound in combination with colistin (E. coli NCTC 13846; colistin 0.25 μg/mL): > 100 µg/mL
MIC of compound in combination with colistin (E. coli NCTC 13846; colistin 0.5 μg/mL): > 100 µg/mL
MIC of colistin in combination with the compound (K. pneumoniae CQ1942; Cpd conc. 0.4 μg/mL, strain E): 0.5 µg/mL
MIC of colistin in combination with the compound (K. pneumoniae CQ1942; Cpd conc. 0.8 μg/mL, strain E): 0.5 µg/mL
MIC of colistin in combination with the compound (K. pneumoniae CQ1942; Cpd conc. 3.125 μg/mL, strain E): 0.25 µg/mL
MIC of colistin in combination with the compound (K. pneumoniae CQ1942; Cpd conc. 6.25 μg/mL, strain E): 0.25 µg/mL
MIC of colistin in combination with the compound (K. pneumoniae CQ1942; Cpd conc. 12.5 μg/mL, strain E): 0.25 µg/mL
MIC of colistin in combination with the compound (K. pneumoniae CQ1942; Cpd conc. […], strain E): 0.5 µg/mL
MIC (K. pneumoniae CQ1942; agent alone, no adjuvant (polymyxin conc. 0), strain E, read-out: MIC): > 100 µg/mL
MIC (K. pneumoniae CQ1942; [1]): > 100 µg/mL
MIC of compound in combination with PMB (K. pneumoniae CQ1942; PMB 0.25 μg/mL, strain E): > 100 µg/mL
MIC of compound in combination with PMB (K. pneumoniae CQ1942; PMB 0.5 μg/mL, strain E): ≤ 0.1 µg/mL
MIC of compound in combination with colistin (K. pneumoniae CQ1942; colistin 0.06 μg/mL, strain E): > 100 µg/mL
MIC of compound in combination with colistin (K. pneumoniae CQ1942; colistin 0.125 μg/mL, strain E): > 100 µg/mL
MIC of compound in combination with colistin (K. pneumoniae CQ1942; colistin 0.25 μg/mL, strain E): 3.1 µg/mL
MIC of compound in combination with colistin (K. pneumoniae CQ1942; colistin 0.5 μg/mL, strain E): ≤ 0.1 µg/mL
MICA(A + B) (MIC of compound in combination with colistin) (K. pneumoniae CQ1942; [2]): 3.125 µg/mL
MICB(A + B) (MIC of colistin in combination with compound) (K. pneumoniae CQ1942; [2]): 0.25 µg/mL
MIC (A. baumannii CQ4322; agent alone, no adjuvant (polymyxin conc. 0), strain G, read-out: MIC): > 100 µg/mL
MIC (A. baumannii CQ4322; [1]): > 100 µg/mL
MIC of colistin in combination with the compound (A. baumannii CQ4322; Cpd conc. 0.4 μg/mL, strain G): 0.5 µg/mL
MIC of colistin in combination with the compound (A. baumannii CQ4322; Cpd conc. 0.8 μg/mL, strain G): 0.5 µg/mL
MIC of colistin in combination with the compound (A. baumannii CQ4322; Cpd conc. 3.125 μg/mL, strain G): 0.5 µg/mL
MIC of colistin in combination with the compound (A. baumannii CQ4322; Cpd conc. 6.25 μg/mL, strain G): 0.25 µg/mL
MIC of colistin in combination with the compound (A. baumannii CQ4322; Cpd conc. 12.5 μg/mL, strain G): 0.25 µg/mL
MIC of colistin in combination with the compound (A. baumannii CQ4322; Cpd conc. […], strain G): 0.5 µg/mL
MIC of compound in combination with PMB (A. baumannii CQ4322; PMB 0.25 μg/mL, strain G): > 100 µg/mL
MIC of compound in combination with PMB (A. baumannii CQ4322; PMB 0.5 μg/mL, strain G): 0.8 µg/mL
MIC of compound in combination with colistin (A. baumannii CQ4322; colistin 0.06 μg/mL, strain G): > 100 µg/mL
MIC of compound in combination with colistin (A. baumannii CQ4322; colistin 0.125 μg/mL, strain G): > 100 µg/mL
MIC of compound in combination with colistin (A. baumannii CQ4322; colistin 0.25 μg/mL, strain G): 6.3 µg/mL
MIC of compound in combination with colistin (A. baumannii CQ4322; colistin 0.5 μg/mL, strain G): ≤ 0.1 µg/mL
MICA(A + B) (MIC of compound in combination with colistin) (A. baumannii CQ4322; [2]): 6.25 µg/mL
MICB(A + B) (MIC of colistin in combination with compound) (A. baumannii CQ4322; [2]): 0.25 µg/mL
SMILES: CCCCCCCCCCCCO[C@H]1C[C@H](O)[C@@H](O)[C@H](C)O1 [Compound 3, dodecyl 2,6-dideoxy-α-L-arabino-hexopyranoside]
Interpretation (of FICI) (E. coli ATCC 25922; compound + colistin): Additive (from 0.5 to 1.0 were additive)
FICI (E. coli ATCC 25922; [3]): 0.52
Interpretation (of FICI) (K. pneumoniae CQ1942; compound + colistin): Additive (from 0.5 to 1.0 were additive)
FICI (K. pneumoniae CQ1942; [3]): 0.52
Interpretation (of FICI) (A. baumannii CQ4322; compound + colistin): Additive (from 0.5 to 1.0 were additive)
FICI (A. baumannii CQ4322; [3]): 0.53
IC50 (Caco-2 cells; Colistin 0.25 μg/mL): 69.2 ± 1.25 µM
IC50 (Caco-2 cells; Colistin 0.5 μg/mL): 68.2 ± 2.12 µM
IC50 (Caco-2 cells; No polymyxin): 68.9 ± 2.21 µM
IC50 (Caco-2 cells; [4]): 21.8 µg/mL
IC50 (HEK-293T cells; Colistin 0.5 μg/mL): 79.3 ± 2 µM
IC50 (HEK-293T cells; No polymyxin): 72.5 ± 2.51 µM
IC50 (HEK-293T cells; PMB 0.5 μg/mL): 75.1 ± 2.7 µM
IC50 (HEK-293T cells; [4]): 22.9 µg/mL
